Data reported in patent US20220105082A1, “NEW FORMULATIONS CONTAINING LEUKOTRIENE RECEPTOR ANTAGONISTS” (JIANGYIN MUCOCARE PHARMACEUTICAL CO., LTD., priority 2019, published 2022).

Key:
SD rats = assay: Idiopathic pulmonary fibrosis (IPF) model, bleomycin-induced; type: in vivo, rat; settings: pirfenidone 120 mg/kg intragastric, 28 days
Method: 50 Adult SD rats (Zhejiang Experimental Animal Center (Animal Production License Number: SCXK (Zhejiang, Chi-00, half male and half female were kept at 21-26° C. with 40-70% relative humidity, with free access to food and water.
After 7 days of adaptive feeding, the rats were randomly divided into 5 groups: sham operation group, idiopathic pulmonary fibrosis model group, Monte gavage administrating group, Monte inhalation administrating group and pirfenidone control group.
The rats were anaesthetized and placed on an operating table in the supine position, exposing the trachea. 150 μL of Bleomycin (Bleomycin Hydrochloride for Injection, Zhejiang Hisun Pharmaceutical Co. Ltd, China) in saline solution was injected into the trachea through the gap between the tracheal cartilage at 5 mg/kg. (The sham-operation group were given an equal volume of normal saline.)
The rats were lifted vertically after administration and were rotated to allow the drug to evenly disperse. Once the rats recovered, after approximately 7 days, they were administrated different drugs according to Table 1 below. […]

BALB/c mice = assay: Mouse ear swelling model (xylene induced); type: in vivo; settings: cream 5 mg/g, 500 μg/mouse on right ear, 40 minutes
Method: 35 healthy male BALB/c mice of 6-8 weeks of age and average body weight of 18-25 g supplied by Changzhou Cvens Experimental Animal Co. Ltd. were housed and cared for about for 1 week prior to the experiment. The housing temperature was 25-27° C. with 74% humidity, with alternating 12 hour periods of light and darkness, and free access to food and water. The mice were randomly divided into 4 groups as described in Table 1 below, with 5 mice in each group.
The left ear of each mouse was used as autologous control. 20 μL of xylene (Shanghai Aladdin Bio-Chem Technology Co., Ltd., Shanghai, China) was applied to the right ear of each mouse, both inside and outside. The ear started to swell in about 4 minutes. Then, different amounts of each study treatments or vehicles (as described in Table 1 below) were applied to the right ears in each group. The mice were put back into their cages.
The mice were sacrificed by cervical dislocation after 40 minutes. The left and right ears were cut off. A skin pouch (Electron Microscopy Sciences, Hatfield, USA) with diameter of 8 mm was used to take a piece of ear from the same site of both ears. The weights were recorded the weights and the swelling rates were calculated as follows:
Swelling rate=(right ear weight−left ear weight)/left ear weight×100%

Row | Structure (SMILES) | HYP (SD rats; lung) [μg/g wet weight] | IL-10 (SD rats; tissue) [pg/mg protein] | xylene induced swelling (BALB/c mice)
1 | Cc1ccc(=O)n(-c2ccccc2)c1 [Postitive Control, pirfenidone] | 755.49 ± 66.64 | 43.52 ± 4.30 | 
2 | COc1cc(C(=O)NS(=O)(=O)c2ccccc2C)ccc1Cc1cn(C)c2ccc(NC(=O)OC3CCCC3)cc12 [zafirlukast] |  |  | significantly reduce
